Entries after “also recorded” stand apart in the source; their conditions may differ. Like-named read-outs stand apart in the source and are kept apart here.
Experiments:
LPA2 [1] = biological target: T1, LPA2 (Homo sapiens, UniProt Q9HBW0); conditions: previously reported in Virag et al. (2003), cited from earlier work
T1 construct: expressed in transfected cells

LPA3 [2] = biological target: T2, LPA3 (Homo sapiens, UniProt Q9UBY5); conditions: RH7777 cells expressing LPA3; previously reported in Virag et al. (2003); cited from earlier work
T2 construct: expressed in transfected cells
T2 sequence (Q9UBY5 1-353): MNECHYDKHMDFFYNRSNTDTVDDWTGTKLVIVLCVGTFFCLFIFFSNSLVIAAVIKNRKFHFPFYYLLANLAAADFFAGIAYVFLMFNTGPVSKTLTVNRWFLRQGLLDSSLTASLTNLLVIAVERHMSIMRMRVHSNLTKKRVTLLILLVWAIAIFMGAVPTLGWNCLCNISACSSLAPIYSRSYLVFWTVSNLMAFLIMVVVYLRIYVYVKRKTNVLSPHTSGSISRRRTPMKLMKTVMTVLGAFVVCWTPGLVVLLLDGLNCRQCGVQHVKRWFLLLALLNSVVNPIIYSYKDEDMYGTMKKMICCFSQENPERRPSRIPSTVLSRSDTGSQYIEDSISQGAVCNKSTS

LPA1 [3] = biological target: T3, LPA1 (Homo sapiens, UniProt Q92633); conditions: RH7777 cells expressing LPA1; previously reported in Virag et al. (2003); cited from earlier work
T3 construct: expressed in transfected cells

IEC-6 cells = assay: Camptothecin-induced DNA fragmentation (apoptosis) in IEC-6 cells, ELISA; assay type: cell-based; conditions: Camptothecin 20 μM, LPA and FAP12 at 10 μM
Procedure: The experimental procedure utilized was substantially the same as that reported in Deng et al. (2002) and Deng et al., (2003).
Basically, IEC-6 cells were grown in DMEM medium supplemented with 5% fetal bovine serum, insulin (10 μg/ml), gentamycin sulfate (50 μg/ml), and incubated at 37° C. in a humidified 90% air–10% CO2 atmosphere. Medium was changed every other day. Sub-confluent cells were washed twice and replaced by DMEM without serum the night before experiments.
Damage and IEC-6 cell apoptosis was induced via either γ-irradiation or chemotherapy. 20 Gy single dose of [^137Cs] source γ-irradiation was used in all experiments. […] In some experiments, LPA was added at different times before or after irradiation. Treatment with 20 μM camptothecin of IEC-6 cells induces DNA fragmentation as measured by the ELISA assay at 16 h after treatment. DNA fragmentation was quantified using the Cell Death Detection ELISA kit from Boehringer (Indianapolis, Ind.) according to the instructions of the manufacturer. Samples were run in triplicate. A duplicate of the sample was used to quantify protein concentration using the BCA kit from Pierce (Rockford, Ill.). DNA fragmentation was expressed as absorbance units per μg protein per minute.

LPA2 [4] = biological target: T1, LPA2; assay: Ca2+ transients (agonism / inhibition of LPA response) in RH7777 cells stably expressing LPA2; assay type: cell-based; conditions: for effect at LPA2 in words: Ca2+ transients
Procedure: (§1) The culture medium (DMEM containing 10% FBS) was then replaced with modified Krebs solution (120 mM NaCl, 5 mM KCl, 0.62 mM MgSO4, 1.8 mM CaCl2, 10 mM HEPES, 6 mM glucose, pH 7.4) and the cells were serum starved for 6–8 hours (12 h for PC-3 cells). Cells were loaded with Fura-2 AM for 35 minutes in modified Krebs medium. The Fura-2 was removed before loading the plate in the FlexStation instrument by replacing the medium once again with 100 μl modified Krebs medium/well. Plates were incubated for 4 minutes in the instrument to allow for warming to 37° C. Changes in intracellular Ca^2+ concentration were monitored by measuring the ratio of emitted light intensity at 520 nm in response to excitation by 340 nm and 380 nm wavelength lights, respectively. Each well was monitored for 80–120 seconds. […] Time courses were recorded using the SoftMax Pro software (Molecular Devices, Sunnyvale, Calif.). Ca^2+ transients were quantified automatically by calculating the difference between maximum and baseline ratio values for each well.
(§2) Each FAP analog was tested for the ability to induce Ca^2+ transients in RH7777 cells transfected with LPA1-3 receptors (agonism), as well as the ability to inhibit LPAinduced Ca^2+ transients in the same cells (antagonism) (Table 3).

PC-3 cells = assay: Ca2+ transients in PC-3 cells endogenously expressing LPA1-3; assay type: cell-based, human; conditions: for IC50: read-out: PC-3 IC50
Procedure: as §1
We tested the FAP analogs in PC-3 cells, which unlike the transfected RH7777 cells endogenously express LPA1-3 receptors.

γ-irradiated mice = assay: Crypt survival in small intestine after whole body γ-irradiation; assay type: in vivo; conditions: 200 μM into the stomach 2 h prior irradiation, crypts counted 3.5 days after irradiation
Procedure: The experimental procedure utilized was substantially the same as that reported in Deng et al. (2002).
The whole body irradiation (WBI) protocol has been reviewed and approved by the ACUC Committee of the University of Tennessee Health Sciences Center. ICR strain male mice (Harlan Laboratories, body weight 30–33 g) on a 12 h light/dark cycle and otherwise maintained on a standard laboratory chow ad libitum were starved for 16 h prior to treatment. WBI was done with a 12 Gy or 15 Gy dose using Cs137 source at a dose rate of 1.9 Gy per minute. Groups of four mice received either 250 μl of 1 mM LPA complexed with 100 μM BSA dissolved in Hanks basal salt solution or the BSA vehicle alone 2 h prior to irradiation.
For detection of the apoptotic bodies, mice were euthanized with carbon dioxide inhalation 4 h after irradiation and the small intestine was dissected and fixed in neutral phosphate buffered isotonic 10% formalin. Four ˜3- to 4-mm long segments from the small intestine were embedded in paraffin, 5 μm thick sections were cut and stained with hematoxilin and eosin. The number of surviving crypts was counted 3.5 days after irradiation.

LPA3 [5] = biological target: T2, LPA3; assay: Ca2+ transients (agonism / inhibition of LPA response) in RH7777 cells stably expressing LPA3; assay type: cell-based; conditions: for Ki: read-out: LPA3 (Ki)
Procedure: as §1, §2

LPA1 [6] = biological target: T3, LPA1; assay: Ca2+ transients (agonism / inhibition of LPA response) in RH7777 cells stably expressing LPA1; assay type: cell-based; conditions: for effect at LPA1 in words: Ca2+ transients
Procedure: as §1, §2

LPA1 [7] = biological target: T3, LPA1; conditions: original assay, literature; read-out: reported Ki at LPA1; cited from earlier work
PPARγ = biological target: T4, PPARγ (Homo sapiens, UniProt P37231); assay: PPARγ activation in CV1 cells, PPRE-Acox-Rluc reporter gene assay; conditions: 10 μM test compound, 20 h
T4 sequence (P37231 1-505): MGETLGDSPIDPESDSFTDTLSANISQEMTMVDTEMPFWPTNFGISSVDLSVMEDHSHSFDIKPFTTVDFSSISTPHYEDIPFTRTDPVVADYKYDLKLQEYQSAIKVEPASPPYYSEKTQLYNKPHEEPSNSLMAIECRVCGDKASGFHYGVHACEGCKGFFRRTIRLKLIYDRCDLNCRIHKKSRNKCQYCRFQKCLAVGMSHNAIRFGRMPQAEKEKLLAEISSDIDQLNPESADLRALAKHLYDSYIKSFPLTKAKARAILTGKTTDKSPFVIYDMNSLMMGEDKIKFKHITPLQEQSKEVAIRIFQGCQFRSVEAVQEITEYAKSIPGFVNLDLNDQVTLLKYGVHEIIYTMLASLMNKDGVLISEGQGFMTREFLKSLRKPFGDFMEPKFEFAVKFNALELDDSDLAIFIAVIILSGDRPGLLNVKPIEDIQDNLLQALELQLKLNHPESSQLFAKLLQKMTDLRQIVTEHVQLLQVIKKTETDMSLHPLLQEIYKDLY
Procedure: Comparing the effects with the Rosiglitazone, a known PPARγ agonist, CV1 cells were treated with 1% DMSO or 10 μM of test compound dissolved in DMSO for 20 h. Luciferase and β-galactosidase activities (mean±SEM) were measured in the cell lysate (n=4). *P<0.05 and **P<0.01, significant differences over vehicle control.
The assay of PPARγ activation in CV1 cells was run as reported in Zhang et al. Briefly, CV-1 cells were plated in 96-well plates (5×10^3 cells per well) in Dulbecco's modified Eagle's medium supplemented with 10% fetal bovine serum. […] Samples were run in quadruplicate and the mean±standard errors were calculated. Data are representative of at least two independent transfections. Student's t-test was used for null hypothesis testing and P<0.05 was considered transfection, cells were treated with 1% FBS supplemented OptiMEMI (Invitrogen) containing DMSO or 10 μM test compound dissolved in DMSO for 20 h. Luciferase and β-galactosidase activities were measured with the Steady-Glo® Luciferase Assay significant (in the figures P<0.05 is denoted by * and P<0.01 is **).

LPA3 [8] = biological target: T2, LPA3; conditions: original assay, literature; read-out: reported Ki at LPA3; cited from earlier work
LPA1 [9] = biological target: T3, LPA1; conditions: GTPγS loading assay, HEK293T; read-out: reported Ki at LPA1; cited from earlier work
LPA2 [10] = biological target: T1, LPA2; conditions: GTPγS loading assay, HEK293T; read-out: reported Ki at LPA2; cited from earlier work
LPA3 [11] = biological target: T2, LPA3; conditions: GTPγS loading assay, HEK293T; read-out: reported Ki at LPA3; cited from earlier work
[12] = induction of Ca2+ transients, RH7777 cells expressing LPA2, read-out: LPA2 EC50
[13] = inhibition of LPA-induced Ca2+ transients, RH7777 cells expressing LPA2, read-out: LPA2 IC50
[14] = induction of Ca2+ transients, RH7777 cells expressing LPA3, read-out: LPA3 EC50
[15] = inhibition of LPA-induced Ca2+ transients, RH7777 cells expressing LPA3
[16] = inhibition of LPA-induced Ca2+ transients, RH7777 cells expressing LPA3, read-out: LPA3 IC50
[17] = induction of Ca2+ transients, RH7777 cells expressing LPA1, read-out: LPA1 EC50
[18] = inhibition of LPA-induced Ca2+ transients, RH7777 cells expressing LPA1, read-out: LPA1 IC50
[19] = inhibition of LPA-induced Ca2+ transients, PC-3 cells

T1 sequence (Q9HBW0 whole entry): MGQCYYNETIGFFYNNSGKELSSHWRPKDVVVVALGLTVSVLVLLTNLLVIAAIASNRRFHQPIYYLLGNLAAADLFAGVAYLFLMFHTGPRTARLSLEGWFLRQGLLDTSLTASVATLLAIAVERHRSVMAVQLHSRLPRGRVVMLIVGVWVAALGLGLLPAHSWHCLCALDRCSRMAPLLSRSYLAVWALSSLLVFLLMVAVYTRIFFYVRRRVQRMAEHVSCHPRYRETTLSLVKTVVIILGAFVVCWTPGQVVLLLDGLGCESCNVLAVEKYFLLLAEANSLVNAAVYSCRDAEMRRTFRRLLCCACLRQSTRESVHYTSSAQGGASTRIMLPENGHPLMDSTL
T3 sequence (Q92633 whole entry): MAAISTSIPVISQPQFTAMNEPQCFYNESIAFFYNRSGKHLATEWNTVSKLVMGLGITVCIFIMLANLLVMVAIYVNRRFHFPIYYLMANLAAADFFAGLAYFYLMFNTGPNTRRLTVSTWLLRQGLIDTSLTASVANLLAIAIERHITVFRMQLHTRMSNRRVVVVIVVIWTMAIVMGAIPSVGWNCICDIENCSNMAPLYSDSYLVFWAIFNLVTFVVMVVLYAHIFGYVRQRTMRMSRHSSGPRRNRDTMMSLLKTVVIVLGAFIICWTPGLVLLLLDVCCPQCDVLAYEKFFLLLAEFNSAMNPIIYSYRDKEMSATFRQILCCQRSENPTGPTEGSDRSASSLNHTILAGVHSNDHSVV

Compound | IC50 (LPA2 [1]; RH7777 cells expressing LPA2) | EC50 (LPA3 [2]) | EC50 (LPA1 [3]) | inhibition of Camptothecin-induced DNA fragmentation in words (IEC-6 cells) | EC50 (LPA2 [4]; [12]) | IC50 (LPA2 [4]; [13]) | EC50 (LPA3 [5]; [14]) | Ki (LPA3 [5]; [15]) | IC50 (LPA3 [5]; [16]) | PPARγ activation (PPRE-Acox-Rluc reporter) in words (PPARγ) | EC50 (LPA1 [6]; [17]) | IC50 (LPA1 [6]; [18]) | further results
CCCCCCCCCCOP(=O)(O)O [Compound 2a] | > 30 µM | > 30 µM | > 30 µM |  |  |  |  |  |  |  |  |  | IC50 (LPA1 [3]): > 30 µM
CCCCCCCCCCCCOP(=O)(O)O [Compound 2b] | > 30 µM | > 30 µM | > 30 µM | inhibited |  |  |  |  |  |  |  |  | LPA2 (Emax) (LPA2 [1]; relative to LPA 18:1): 50%; IC50 (LPA3 [2]): 0.128 µM; Ki (LPA3 [2]): 0.061 µM
CCCCCCCCCCCCCCOP(=O)(O)O [Compound 2c] | > 30 µM | > 30 µM | > 30 µM |  |  |  |  |  |  |  |  |  | EC50 (LPA2 [1]; RH7777 cells expressing LPA2): > 30 µM
CCCCCCCCC=CCCCCCCCCOP(O)(O)=S [Compound 8g, Thiophosphoric acid O-octadec-9-enyl ester] |  |  |  | comparable to that of LPA but supersedes it at concentrations above 3 μM; also recorded: dose-dependently inhibit DNA fragmentation |  |  |  |  |  |  |  |  | EC50 (LPA2 [4]): 0.244 µM; IC50 (LPA2 [4]): > 30 µM; effect at LPA2 in words (LPA2 [4]; RH7777 cells expressing LPA2): agonist; effect in PC-3 cells in words (PC-3 cells; Ca2+ transients, PC-3 cells): no inhibition of LPA response; Emax (PC-3 cells; Homo sapiens, PC-3, read-out: PC-3 (Emax)): 30%; crypt survival in words (γ-irradiated mice): enhances crypt survival; crypt survival in words (γ-irradiated mice; listed as FAP 18:1 d9): dose-dependent enhancement of crypt survival; crypt survival in words (γ-irradiated mice; listed as FAP 18:1d9): significantly (P>0.01) enhanced crypt survival; also recorded: present in the jejunum and ileum and exceeded that of LPA; also recorded: dose-dependent crypt survival in the ileum and jejunum; EC50 (LPA3 [5]): 0.546 µM; IC50 (LPA3 [5]): > 30 µM; effect at LPA3 in words (LPA3 [5]; Ca2+ transients, RH7777 cells expressing LPA3): agonist; EC50 (LPA1 [6]): 0.193 µM; IC50 (LPA1 [6]): > 30 µM; effect at LPA1 in words (LPA1 [6]; RH7777 cells expressing LPA1): agonist; Emax (LPA1 [6]; RH7777, read-out: LPA1 (Emax)): 80%; LPA1 (Emax) (LPA1 [6]; maximal efficacy of the drug/maximal efficacy of LPA 18:1): 80%
CCCCCCCC(=O)OC[C@H](COP(=O)(O)OP(=O)(O)O)OC(=O)CCCCCCC [DGPP, reference compound] |  |  |  |  | > 30 µM | > 30 µM | > 30 µM | 0.202 µM | 0.454 µM | can activate PPRE-Acox-Rluc reporter | > 30 µM | 5.5 µM | Ki (LPA1 [7]): 6.6 µM; Ki (LPA1 [6]; RH7777 cells expressing LPA1): 4.3 µM; Ki (LPA3 [8]): 0.106 µM
Cc1noc(-c2ccc(CSCCC(=O)O)cc2)c1NC(=O)OC(C)c1ccccc1Cl (stereo not drawn) [Ki16425, reference compound] |  |  |  |  | > 30 µM | > 30 µM | > 30 µM | 0.148 µM | 0.301 µM | can activate PPRE-Acox-Rluc reporter | > 30 µM | 0.762 µM | Ki (LPA1 [9]): 0.25 µM; Ki (PC-3 cells; [19]): 1.74 µM; IC50 (PC-3 cells; [19]): 3.38 µM; Ki (LPA2 [10]): 5.6 µM; Ki (LPA3 [11]): 0.36 µM; Ki (LPA1 [6]; inhibition of LPA-induced Ca2+ transients, RH7777 cells expressing LPA1): 0.425 µM
CCCCCCCC/C=C\CCCCCCCC(=O)OC[C@@H](COP(O)(O)=S)OC [OMPT] |  |  |  |  |  |  |  |  |  | can activate PPRE-Acox-Rluc reporter |  |  | 
CCCCCCCC/C=C\CCCCCCCC(=O)N[C@@H](COP(=O)(O)O)Cc1ccc(OCc2ccccc2)cc1 [VPC12249, reference compound] |  |  |  |  | > 30 µM | > 30 µM | > 30 µM | 0.588 µM | 1.19 µM | can activate PPRE-Acox-Rluc reporter; also recorded: exception | > 30 µM | > 10 µM | Ki (LPA1 [9]): 0.137 µM; effect at LPA2 in words (LPA2 [4]; RH7777 cells expressing LPA2): did not affect LPA signaling; IC50 (PC-3 cells; [19]): > 10 µM; Ki (LPA3 [11]): 0.428 µM; effect at LPA1 in words (LPA1 [6]; RH7777 cells expressing LPA1): weak inhibitor
lysophosphatidic acid [LPA] |  |  |  | inhibited; also recorded: dose-dependently inhibit DNA fragmentation |  |  |  |  |  |  |  |  | 

— patent US7217704B2, “LPA receptor agonists and antagonists and methods of use” (The University of Tennessee Research Foundation, priority 2003, dated 2007)
